The text below walks through data of PubChem BioAssay (NCI).

Test systems include PC-3 prostate; NCI-H23 lung; MCF7 breast; HS 578T breast; HT29 colon; SF-268 CNS; ACHN renal; MDA-N; A498 renal; KM12 colon; EKVX NSCLC.
Holding throughout (assay): NCI tumour cell line growth inhibition, 48 h

Structures are written as SMILES.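 Five compound concentrations were applied to cells in 96-well plates for 48 hours; endpoints were derived by simple linear interpolation of the resulting dose-response curve. TGI: total growth inhibition.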

With `CCOC(=O)C(NC(=O)OCc1ccccc1)C(=O)O` (centres undefined), the TGI in the assay on PC-3 prostate, with NCI-H23 lung, with MCF7 breast, in the assay on HS 578T breast, in the assay on HT29 colon and in the assay on SF-268 CNS was above 100 µM in each case. In addition, the TGI in the assay with ACHN renal, in the assay on MDA-N, in the assay with A498 renal, in the assay with KM12 colon and in the assay on EKVX NSCLC was above 100 µM throughout.
On to `CC1(C)CCN2C(=O)C34CCCC3CC21S4` (centres undefined), for which the TGI in the assay on PC-3 prostate, in the assay with NCI-H23 lung, with MCF7 breast, in the assay on HS 578T breast, in the assay on HT29 colon and in the assay on SF-268 CNS was above 100 µM throughout. Further, the TGI with ACHN renal, in the assay with MDA-N, in the assay on A498 renal, in the assay on KM12 colon and in the assay on EKVX NSCLC was above 100 µM each time.
Take `COc1ccc(Nc2nc3ccccc3n3cccc23)cc1OC`: the TGI in the assay with PC-3 prostate is 23.9 µM; in the assay on NCI-H23 lung, 27.9 µM; in the assay on MCF7 breast it was 29.6 µM; in the assay on HS 578T breast, above 100 µM; in the assay on HT29 colon, above 100 µM; in the assay with SF-268 CNS it was 53.3 µM. The TGI was found to be 69.7 µM in the assay on ACHN renal; 29.4 µM in the assay with MDA-N; 55.8 µM with A498 renal; 29.1 µM in the assay with KM12 colon; 68.5 µM with EKVX NSCLC.
Consider `CNC(=O)c1n[nH]n(C2CCCCC2)c1=S`, for which the TGI with PC-3 prostate, in the assay on NCI-H23 lung, with MCF7 breast, in the assay on HS 578T breast, in the assay on HT29 colon and in the assay with SF-268 CNS was above 100 µM throughout. Also, the TGI in the assay on ACHN renal, in the assay with MDA-N, in the assay on A498 renal, in the assay on KM12 colon and in the assay on EKVX NSCLC was above 100 µM each time.
